Laboratory results: patent publication US10328077B2 (CELGENE CORPORATION, priority 2016, dated 2019)
Like-named read-outs stand apart in the source and are kept apart here.

Key:
[1] = Hemodynamic and ECG parameters in anesthetized guinea pigs; format: in vivo, Dunkin Hartley guinea pigs; conditions: for concentration at 10 min: male, Dunkin Hartley, plasma, read-out: mean plasma concentration at end of infusion
Text: Animals were monitored throughout the experiment.

[2] = target: CYP2C9 (Homo sapiens (Human), UniProt P11712); assay: CYP inhibition in pooled human liver microsomes, CYP2C9; format: in vitro ADME; conditions: up to 50 μM
[3] = 4-week oral gavage pivotal toxicity study with 4-week recovery in dogs (incl. ECG, TK); format: in vivo, Beagle dogs; conditions: for AUC(0-t): Beagle, po, AUC0-168
Experimental: The QTc interval was calculated using the Fridericia method.

[4] = Pharmacokinetics after IV and oral dose, rats; format: in vivo, Sprague Dawley rats; conditions: for half-life: read-out: t1/2, z (converted)
[5] = system: MKL-1 hMCC xenograft; format: in vivo; conditions: 5 mg/kg PO 5 on/2 off
[6] = target: muscarinic M1 receptor (Homo sapiens (Human), UniProt P11229); assay: CEREP in vitro pharmacology panel, muscarinic M1 receptor
[7] = target: CYP2D6 (Homo sapiens (Human), UniProt P10635); assay: CYP inhibition in pooled human liver microsomes, CYP2D6; format: in vitro ADME; conditions: up to 50 μM
[8] = target: P-gp (MDR1) (Homo sapiens (Human), UniProt P08183); assay: Permeability in MDR1-MDCK cells; format: in vitro ADME
[9] = system: LU2527 lung NEC patient-derived xenograft; format: in vivo
[10] = system: CYP1A2 mRNA; assay: CYP induction in cryopreserved human hepatocytes, CYP1A2; format: in vitro ADME; conditions: 0.03 to 10 μM, up to 3 days
[11] = system: GA0087 gastric NEC patient-derived xenograft; format: in vivo
[12] = system: CYP3A4 mRNA; assay: CYP induction in cryopreserved human hepatocytes, CYP3A4; format: in vitro ADME; conditions: 0.03 to 10 μM, up to 3 days
[13] = Excretion in bile duct cannulated rats; format: in vivo; conditions: IV, 24-hour period
[14] = Predicted human pharmacokinetics (allometric scaling)
[15] = Exploratory toxicity study in dogs; format: in vivo, Beagle dogs
[16] = LXFS 1129 SCLC PDX model; set-up: species or system mice; conditions: female, NMRI-Foxnlnu, mouse, in vivo, oral, read-out: AUC0-24
[17] = system: LXFS 1129 SCLC patient-derived xenograft; assay: LXFS 1129 SCLC PDX model; set-up: species or system mice; conditions: mouse, in vivo
[18] = Exploratory toxicity study in mice; format: in vivo, CD-1 mice; conditions: for reduction in neutrophil counts: 60 mg/kg/dose QOD
Text: Additional animals were included for TK evaluation.

[19] = system: LXFS 573 SCLC patient-derived xenograft
[20] = Sprague Dawley, plasma, rat, female, single IV dose 5 mg
[21] = Sprague Dawley, plasma, rat, female, single oral dose 5 mg base/kg
[22] = Sprague Dawley, plasma, rat, female, single oral dose 15 mg base/kg
[23] = Sprague Dawley, plasma, rat, female, single oral dose 50 mg base/kg
[24] = Compound A 5 mg/kg/day PO days 1-133

Sequence of P-gp (MDR1) (P08183 whole entry): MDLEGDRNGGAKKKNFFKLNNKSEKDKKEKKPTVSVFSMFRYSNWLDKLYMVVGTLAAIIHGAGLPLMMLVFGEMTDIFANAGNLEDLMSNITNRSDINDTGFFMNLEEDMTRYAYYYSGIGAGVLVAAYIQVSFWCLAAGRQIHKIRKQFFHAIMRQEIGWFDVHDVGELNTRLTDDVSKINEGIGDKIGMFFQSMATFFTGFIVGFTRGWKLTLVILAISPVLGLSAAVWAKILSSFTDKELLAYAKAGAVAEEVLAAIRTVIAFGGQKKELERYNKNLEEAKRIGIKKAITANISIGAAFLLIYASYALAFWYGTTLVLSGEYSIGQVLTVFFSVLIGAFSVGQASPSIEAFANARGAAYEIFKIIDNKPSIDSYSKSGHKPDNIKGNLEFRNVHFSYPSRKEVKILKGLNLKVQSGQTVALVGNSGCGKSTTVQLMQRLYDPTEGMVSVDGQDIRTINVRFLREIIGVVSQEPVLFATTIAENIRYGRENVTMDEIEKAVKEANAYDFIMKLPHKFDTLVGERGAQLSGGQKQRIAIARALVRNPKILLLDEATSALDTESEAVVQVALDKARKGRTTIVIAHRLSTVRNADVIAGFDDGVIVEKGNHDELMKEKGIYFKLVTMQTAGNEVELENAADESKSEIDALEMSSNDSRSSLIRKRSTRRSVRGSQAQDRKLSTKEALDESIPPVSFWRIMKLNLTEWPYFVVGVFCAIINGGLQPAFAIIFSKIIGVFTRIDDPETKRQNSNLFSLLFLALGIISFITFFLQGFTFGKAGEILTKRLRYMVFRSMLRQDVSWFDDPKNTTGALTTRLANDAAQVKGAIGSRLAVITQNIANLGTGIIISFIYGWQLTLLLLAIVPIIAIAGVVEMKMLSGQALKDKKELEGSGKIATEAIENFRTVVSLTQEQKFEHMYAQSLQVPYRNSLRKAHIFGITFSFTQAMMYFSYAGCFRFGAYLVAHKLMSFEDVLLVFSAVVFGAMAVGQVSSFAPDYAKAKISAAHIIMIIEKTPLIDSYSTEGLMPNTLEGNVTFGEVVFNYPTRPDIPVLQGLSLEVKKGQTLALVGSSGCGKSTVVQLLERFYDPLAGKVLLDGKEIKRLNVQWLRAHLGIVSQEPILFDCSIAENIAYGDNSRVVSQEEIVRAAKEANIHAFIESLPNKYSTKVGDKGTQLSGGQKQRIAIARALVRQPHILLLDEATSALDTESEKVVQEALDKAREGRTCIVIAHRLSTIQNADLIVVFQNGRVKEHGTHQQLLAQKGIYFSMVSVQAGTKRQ
Sequence of muscarinic M1 receptor (P11229 whole entry): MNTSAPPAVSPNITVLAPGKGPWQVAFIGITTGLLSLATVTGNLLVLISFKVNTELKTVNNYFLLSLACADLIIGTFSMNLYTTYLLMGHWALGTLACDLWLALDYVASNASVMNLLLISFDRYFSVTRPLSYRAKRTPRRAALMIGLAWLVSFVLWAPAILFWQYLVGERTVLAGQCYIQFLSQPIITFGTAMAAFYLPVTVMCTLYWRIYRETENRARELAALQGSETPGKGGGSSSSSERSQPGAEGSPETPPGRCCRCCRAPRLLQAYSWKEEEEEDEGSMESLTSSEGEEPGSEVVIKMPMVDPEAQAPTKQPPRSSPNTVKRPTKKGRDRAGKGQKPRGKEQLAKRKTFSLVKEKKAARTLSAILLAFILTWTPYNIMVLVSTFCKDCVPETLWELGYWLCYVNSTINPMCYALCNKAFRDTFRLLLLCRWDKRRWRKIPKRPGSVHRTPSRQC
Sequence of CYP2D6 (P10635 whole entry): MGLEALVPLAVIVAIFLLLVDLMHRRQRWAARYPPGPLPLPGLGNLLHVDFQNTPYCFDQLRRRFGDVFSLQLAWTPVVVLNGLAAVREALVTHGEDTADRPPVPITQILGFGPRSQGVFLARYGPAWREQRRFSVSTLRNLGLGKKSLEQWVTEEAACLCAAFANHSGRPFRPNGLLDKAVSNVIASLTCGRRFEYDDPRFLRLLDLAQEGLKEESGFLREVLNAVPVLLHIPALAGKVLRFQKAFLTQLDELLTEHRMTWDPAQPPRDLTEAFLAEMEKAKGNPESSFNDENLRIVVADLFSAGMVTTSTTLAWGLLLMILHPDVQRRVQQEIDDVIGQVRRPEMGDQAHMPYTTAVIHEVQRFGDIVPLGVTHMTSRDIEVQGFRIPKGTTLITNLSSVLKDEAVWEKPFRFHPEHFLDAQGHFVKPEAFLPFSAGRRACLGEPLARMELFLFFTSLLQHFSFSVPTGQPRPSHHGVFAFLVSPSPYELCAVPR
Sequence of CYP2C9 (P11712 whole entry): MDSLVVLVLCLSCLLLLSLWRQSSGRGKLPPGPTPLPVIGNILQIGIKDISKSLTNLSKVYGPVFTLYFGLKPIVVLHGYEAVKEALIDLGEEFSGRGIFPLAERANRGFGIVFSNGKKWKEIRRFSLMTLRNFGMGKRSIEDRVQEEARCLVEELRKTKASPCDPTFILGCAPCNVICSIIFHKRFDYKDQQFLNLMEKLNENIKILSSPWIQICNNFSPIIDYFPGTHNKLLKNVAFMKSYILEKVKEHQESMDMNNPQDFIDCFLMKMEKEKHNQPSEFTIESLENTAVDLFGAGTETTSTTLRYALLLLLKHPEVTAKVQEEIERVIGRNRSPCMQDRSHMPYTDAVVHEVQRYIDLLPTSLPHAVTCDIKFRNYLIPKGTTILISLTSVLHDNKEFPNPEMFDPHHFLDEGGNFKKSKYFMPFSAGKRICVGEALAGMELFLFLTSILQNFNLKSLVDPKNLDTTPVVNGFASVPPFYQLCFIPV

COc1ccc(-c2c(-c3ccc(C#N)c(F)c3)nc(N3CCC(N)CC3)n(C)c2=O)cc1F [Compound A, 4-[2-(4-amino-piperidin-1-yl)-5-(3-fluoro-4-methoxy-phenyl)-1-methyl-6-oxo-1,6-dihydro-pyrimidin-4-yl]-2-fluoro-benzonitrile]
maximum increase of QTcB interval vs vehicle ([1]; 10 mg base/kg IV): approximately 9%
maximum increase of QTcB interval vs vehicle ([1]; 15 mg base/kg IV): ~13%
maximum increase of QTcB interval vs vehicle ([1]; 20 mg base/kg IV): ~16%
maximum suppression of HR vs vehicle ([1]; 20 mg base/kg IV, 9 minutes into infusion): 19%
NOAEL for hemodynamic and ECG endpoints ([1]; IV): 10 mg base/kg
HR decrease at end of monitoring period ([1]; after 20 mg base/kg IV): 18%
QTcB interval increase at end of monitoring period ([1]; guinea pig, in vivo): 10%
concentration at 10 min ([1]; guinea pig, 5 mg base/kg IV): 1170 ng/mL
concentration at 10 min ([1]; guinea pig, 10 mg base/kg IV): 2360 ng/mL
concentration at 10 min ([1]; guinea pig, 15 mg base/kg IV): 4270 ng/mL
concentration at 10 min ([1]; guinea pig, 20 mg base/kg IV): 6710 ng/mL
direct inhibition of CYP2C9 [2]: little to no direct inhibitory effect
NOEL for CV and respiratory changes ([3]; BIW oral): 0.375 mg base/kg/dose
HNSTD and NOAEL ([3]; QW or BIW dose schedule): < 0.375 mg base/kg/dose
NOEL for CV and respiratory changes ([3]; QW oral): 0.75 mg base/kg/dose
reversibility of findings ([3]; dog, in vivo): complete recovery
AUC(0-t) ([3]; female, dog, in vivo): 435 ng·h/mL
AUC(0-t) ([3]; male, dog, in vivo): 503 ng·h/mL
moribund euthanasia ([3]; weekly oral 0.375 to 1.5 mg base/kg, Days 13 to 23): 11 animals
primary toxicities ([3]; ≥0.375 mg base/kg/dose, QW or BIW): mucosal ulceration, acute and/or subacute inflammation, and mucosal epithelial atrophy of GI tract tissues
systemic clearance ([4]; IV, rats (greater than liver blood flow)): high
AUC(0-inf) [4, 20]: 733 ng·h/mL
AUC(0-t) [4, 20]: 680 ng·h/mL
clearance [4, 20]: 115 mL/min/kg
Vd ([4]; Sprague Dawley, plasma, rat, female, single IV dose 5 mg, mean (SD), read-out: Vss): 26.2 L/kg
half-life [4, 20]: 3.6 h
AUC(0-t) [4, 21]: 222 ng·h/mL
Cmax [4, 21]: 47 ng/mL
Tmax [4, 21]: 2 h
bioavailability [4, 21]: 33%
half-life [4, 21]: 3 h
AUC(0-t) [4, 22]: 570 ng·h/mL
Cmax [4, 22]: 123 ng/mL
Tmax [4, 22]: 2 h
bioavailability [4, 22]: 28%
half-life [4, 22]: 2.9 h
AUC(0-t) [4, 23]: 4650 ng·h/mL
Cmax [4, 23]: 621 ng/mL
Tmax [4, 23]: 6 h
bioavailability [4, 23]: 74%
half-life [4, 23]: 3 h
Median Tumor Volume Day 15 [5]: 880 mm^3
Median Tumor Volume Diff (Day 15 - Day -3) [5]: 815 mm^3
Ki [6]: 1600 nM
inhibition at 10 µM ([6]; read-out: inhibition of ligand binding): 76%
direct inhibition of CYP2D6 [7]: little to no direct inhibitory effect
Papp A→B [8]: 0.5 ×10⁻⁶ cm/s
Papp B→A [8]: 16.5 ×10⁻⁶ cm/s
Median Tumor Volume Day 46 ([9]; 5 mg/kg PO QD x 46): 329.7 mm^3
Median Tumor Volume Diff (Day 46 - Day 0) ([9]; 5 mg/kg PO QD x 46): 177.9 mm^3
% TGI ([9]; 5 mg/kg PO QD x 46, Day 46): 84%
TGI ([9]; 5 mg/kg oral QD for 46 days): 84%
tolerability ([9]; 1.5 and 5 mg/kg oral QD): acceptably tolerated
increase in CYP1A2 mRNA over vehicle control [10]: < 2 fold
Median Tumor Volume Day 53 ([11]; 5 mg/kg PO QD x 53): 673.2 mm^3
Median Tumor Volume Diff (Day 53 - Day 0) ([11]; 5 mg/kg PO QD x 53): 863.3 mm^3
tolerability ([11]; 1.5 and 5 mg/kg oral QD): acceptably tolerated
increase in CYP3A4 mRNA over vehicle control [12]: < 2 fold
dose excreted intact (urine + bile) [13]: 26.3 % of the dose
dose excreted intact in bile [13]: 17.8 % of dose
dose excreted intact in urine [13]: 8.5 % of dose
predicted steady state systemic exposure (AUCt) ([14]; 1.25 mg oral QW, 60-kg human, 80% oral bioavailability assumed): 29 ng·h/mL
predicted clearance ([14]; allometric scaling): 9.4 mL/min/kg
predicted volume of distribution ([14]; allometric scaling): 17.6 L/kg
platelet counts ([15]; 0.25 mg/kg/dose): no reduction in platelet counts
Compound A-related effects ([15]; 0.25 mg/kg/dose QOD): no Compound A-related effects
platelet counts ([15]; 0.5 mg/kg/dose (both schedules) and 1 mg/kg/dose, most dogs): below 25,000 /μL
body weight loss ([15]; one female, 0.5 mg/kg/day 5 days on/2 days off, sacrificed moribund Day 12): 10.8%
AUC(0-t) ([16]; 1.5 mg base/kg): 243 ng·h/mL
AUC(0-t) ([16]; 5 mg base/kg): 1260 ng·h/mL
mean body weight loss [17]: < 6%
increase in platelets on Day 8 ([18]; 10 mg/kg/day 5 days on/2 days off, vs end of first dosing period): > 2 fold
reduction in neutrophil counts ([18]; females): 66%
reduction in neutrophil counts ([18]; males): 83%
increased spleen weights ([18]; 30 or 60 mg/kg/dose 5 days on/2 days off): up to 2 fold
greatest reduction in neutrophil counts ([18]; 5 days on/2 days off schedule, vs concurrent controls and pre-study values): approximately 90%
circulating platelets ([18]; all dose levels, end of study): reduced
% TGD [19, 24]: 217%
T − C [19, 24]: 91 days
median TTE [19, 24]: 133 days
median TTE ([19]; Compound A monotherapy 5 mg/kg PO daily): 133 days
study survivors ([19]; Compound A monotherapy 5 mg/kg, Day 133, n=8): seven
MTV of study survivors ([19]; mouse, in vivo): 1064 mm3
MTV, median tumor volume of study survivors ([19]; mouse, in vivo): (1064) mm^3
SS, number of study survivors ([19]; mouse, in vivo): 7
